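How tested: cells in 96-well plates exposed to compound for 48 hours at five concentrations. TGI is the concentration that stops growth completely.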
Key:
Experiment in all cases: NCI tumour cell line growth inhibition, 48 h
[1] = test system: SNB-19 CNS
[2] = test system: OVCAR-5 ovarian
[3] = test system: XF 498 CNS
[4] = test system: EKVX NSCLC
[5] = test system: SK-MEL-28 melanoma
[6] = test system: SF-295 CNS
[7] = test system: M19-MEL melanoma
[8] = test system: SNB-75 CNS
[9] = test system: HCT-116 colon
[10] = test system: SW-620 colon
[11] = test system: TK-10 renal
[12] = test system: KM20L2 colon
[13] = test system: A549 NSCLC
[14] = test system: RPMI-8226 leukemia
[15] = test system: HCC-2998 colon
[16] = test system: IGROV1 ovarian
[17] = test system: NCI-H460 lung
[18] = test system: UACC-257 melanoma
[19] = test system: DMS 114 small cell lung
[20] = test system: OVCAR-3 ovarian
[21] = test system: LXFL 529 NSCLC
[22] = test system: M14 melanoma
[23] = test system: LOX IMVI melanoma
[24] = test system: DLD-1 colon
[25] = test system: UACC-62 melanoma
[26] = test system: OVCAR-4 ovarian
[27] = test system: MOLT-4 leukemia
[28] = test system: MALME-3M melanoma
[29] = test system: RXF 393 renal
[30] = test system: HOP-18 NSCLC
[31] = test system: COLO 205 colon
[32] = test system: K-562 leukemia
[33] = test system: HCT-15 colon
[34] = test system: CCRF-CEM leukemia
[35] = test system: HT29 colon
[36] = test system: HOP-92 NSCLC
[37] = test system: NCI-H522 lung
[38] = test system: SF-268 CNS
[39] = test system: SNB-78 CNS
[40] = test system: HOP-62 NSCLC
[41] = test system: NCI-H226 lung
[42] = test system: CAKI-1 renal
[43] = test system: HL-60(TB) leukemia
[44] = test system: U251 CNS
[45] = test system: SK-MEL-2 melanoma
[46] = test system: NCI-H23 lung
[47] = test system: 786-0 renal
[48] = test system: DMS 273 small cell lung
[49] = test system: OVCAR-8 ovarian
[50] = test system: SF-539 CNS
[51] = test system: A498 renal
[52] = test system: KM12 colon
[53] = test system: ACHN renal
[54] = test system: SK-OV-3 ovarian
[55] = test system: UO-31 renal
[56] = test system: SK-MEL-5 melanoma

## Cc1c2nc3ccccc3sc-2cc(=O)c1C
[1]
  TGI: > 100 µM
[2]
  TGI: > 100 µM
[3]
  TGI: > 100 µM
[4]
  TGI: > 100 µM
[5]
  TGI: > 100 µM
[6]
  TGI: > 100 µM
[7]
  TGI: 29.7 µM
[8]
  TGI: > 100 µM
[9]
  TGI: > 100 µM
[10]
  TGI: > 100 µM
[11]
  TGI: > 100 µM
[12]
  TGI: > 100 µM
[13]
  TGI: > 100 µM
[14]
  TGI: > 100 µM
[15]
  TGI: > 100 µM
[16]
  TGI: > 100 µM
[17]
  TGI: > 100 µM
[18]
  TGI: > 46.8 µM
[19]
  TGI: 79.7 µM
[20]
  TGI: > 90.6 µM
[21]
  TGI: > 100 µM
[22]
  TGI: > 100 µM
[23]
  TGI: > 100 µM
[24]
  TGI: > 100 µM
[25]
  TGI: 70.3 µM
[26]
  TGI: > 100 µM
[27]
  TGI: > 100 µM
[28]
  TGI: > 100 µM
[29]
  TGI: > 100 µM
[30]
  TGI: > 100 µM
[31]
  TGI: > 89.2 µM
[32]
  TGI: > 91.6 µM
[33]
  TGI: > 100 µM
[34]
  TGI: > 100 µM
[35]
  TGI: > 100 µM
[36]
  TGI: > 100 µM
[37]
  TGI: > 100 µM
[38]
  TGI: > 100 µM
[39]
  TGI: > 100 µM
[40]
  TGI: > 100 µM
[41]
  TGI: > 100 µM
[42]
  TGI: > 100 µM
[43]
  TGI: > 85.5 µM
[44]
  TGI: > 100 µM
[45]
  TGI: > 25.2 µM
[46]
  TGI: > 100 µM
[47]
  TGI: > 100 µM
[48]
  TGI: > 100 µM
[49]
  TGI: > 100 µM
[50]
  TGI: > 100 µM
[51]
  TGI: > 100 µM
[52]
  TGI: > 100 µM
[53]
  TGI: > 100 µM
[54]
  TGI: > 100 µM
[55]
  TGI: > 100 µM
[56]
  TGI: > 100 µM

## CCOC(=O)C1(C(=O)OCC)OC(=O)NC2=C1CCCC2
[1]
  TGI: > 100 µM
[2]
  TGI: > 100 µM
[3]
  TGI: > 100 µM
[4]
  TGI: > 100 µM
[5]
  TGI: > 100 µM
[6]
  TGI: > 100 µM
[7]
  TGI: > 100 µM
[8]
  TGI: > 100 µM
[9]
  TGI: > 100 µM
[10]
  TGI: > 100 µM
[11]
  TGI: > 100 µM
[12]
  TGI: > 100 µM
[13]
  TGI: > 100 µM
[14]
  TGI: > 100 µM
[15]
  TGI: > 100 µM
[16]
  TGI: > 100 µM
[17]
  TGI: > 100 µM
[18]
  TGI: > 100 µM
[19]
  TGI: > 100 µM
[20]
  TGI: > 100 µM
[21]
  TGI: > 100 µM
[23]
  TGI: > 100 µM
[24]
  TGI: > 100 µM
[27]
  TGI: > 100 µM
[28]
  TGI: > 100 µM
[29]
  TGI: > 100 µM
[30]
  TGI: > 100 µM
[31]
  TGI: > 100 µM
[32]
  TGI: > 100 µM
[34]
  TGI: > 100 µM
[35]
  TGI: > 100 µM
[36]
  TGI: > 100 µM
[37]
  TGI: > 100 µM
[38]
  TGI: > 100 µM
[39]
  TGI: > 100 µM
[40]
  TGI: > 100 µM
[43]
  TGI: > 100 µM
[44]
  TGI: > 100 µM
[45]
  TGI: > 100 µM
[46]
  TGI: > 100 µM
[47]
  TGI: > 100 µM
[48]
  TGI: > 100 µM
[49]
  TGI: > 100 µM
[50]
  TGI: > 100 µM
[51]
  TGI: > 100 µM
[52]
  TGI: > 100 µM
[53]
  TGI: > 100 µM
[54]
  TGI: > 100 µM
[55]
  TGI: > 100 µM
[56]
  TGI: > 100 µM

— PubChem BioAssay (NCI)
